The nature of one data set: physchem. To be noted: 30 °C, pH 7, aqueous buffer, thermodynamic from solid.
In data set [1] the test system is PPO enzyme (E.C. 1.10.3.1) from banana (Musa sapientum) skin. The data set is described as follows: test of potential melanogenic substrates of banana PPO (pigment formation vs blank). It counts as biochemical. To be noted: pH 7.
Data set [2] concerns cultured human foreskin fibroblasts.
A short description of another data set: in vitro. To be noted: human.
The subject of the next data set is HSV-1. The data set is described as follows: microbe, parasite or virus in culture. In kind it is cell-based. To be noted: Human alphaherpesvirus 1, HFF, read-out: ACV EC50.
A further data set concerns HSV-2. The experiment in a line: microbe, parasite or virus in culture. In kind it is cell-based. To be noted: Human alphaherpesvirus 2, HFF, read-out: ACV EC50.

We go through 13 compounds from patent US8673983B2, “Melanins synthesized chemically or via enzyme catalysis” (priority 2007, dated 2014).

Converted amounts (≈) assume the structure as drawn.

`O=C(O)c1ccc(O)c(O)c1` [Protocatechuric acid, 3,4-dihydroxybenzoic acid] registered a solubility in “physchem” above 2000 µg/mL. For the same compound, in data set [1], the “PPO Substrate” value was “Y”.
In the data set “physchem”, `O=c1c(O)c(-c2ccc(O)c(O)c2)oc2cc(O)cc(O)c12` [Quercetin, 2-(3,4-dihydroxyphenyl)-3,5,7-trihydroxy-4H-1-benzopyran-4-one] registered a solubility below 2000 µg/mL.
In “physchem”, `O=c1ccc2cc(O)c(O)cc2o1` [Esculetin, 6,7 Dihydroxvcoumarin] displayed a solubility below 2000 µg/mL. Also, the “PPO Substrate” value in data set [1] is given as “Y”.
`O=C(O)C=Cc1ccc(O)c(O)c1` [Caffeic acid, 3,4-dihydroxycinnamic acid] returned a solubility in the data set “physchem” above 2000 µg/mL.
With Nordihydroguaiuretic acid, the Toxicity result in data set [2] is “N”.
Regarding `Nc1nc(O)c2ncn(COC(CO)CO)c2n1` [GCV, ganciclovir], the CC50 in “in vitro” was above 100 µg/mL.
In the case of 5,6,7 trihydroxyflavanone [Baicalein], in data set [1], the “PPO Substrate” value is on record as “Y”.
In the case of `O=C(O)Cc1ccc(O)c(O)c1` [DOPAC, 3,4-dihydroxyphenylacetic acid], the solubility in the data set “physchem” was above 2000 µg/mL.
Take `NCCc1c[nH]c2ccc(O)cc12` [Serotonin, 5-hydroxytryptamine]: the “PPO Substrate” value in data set [1] is reported as “Y”.
For `Nc1nc2c(ncn2COCCO)c(=O)[nH]1` [ACV, Acyclovir], the CC50 in the data set “in vitro” is above 100 µg/mL. The results for the EC50 in the data set with HSV-1 and with HSV-2 were 1.1 µg/mL (≈ 0.00488 mM) and 1.4 µg/mL (≈ 0.00622 mM), respectively.
Compound `Oc1cccc(O)c1O` [Pyrogallol, 1,2,3-trihydroxvbenzene] had a solubility in the data set “physchem” below 2000 µg/mL.
Compound `O=C(O)c1cc(O)c(O)c(O)c1` [Gallic acid, 3,4,5-trihydroxybenzoic acid] returned a solubility in “physchem” below 2000 µg/mL.
In the data set “physchem”, `O=C1c2ccccc2C(=O)c2c1ccc(O)c2O` [Alizarin, 1,2-dihydroxy-anthraquinone] came in with a solubility below 2000 µg/mL. Also, the “PPO Substrate” value in data set [1] is reported as “Y”.

For orientation: solubility means how much of the substance goes into solution per volume. A higher solubility goes with much dissolved substance. A word on the EC50: it is the concentration giving half of the maximal effect.
